Measurements published in US12172995B2, “Substituted indole and indazole compounds” (BRISTOL-MYERS SQUIBB COMPANY, priority 2018, dated 2024).

Experiments:
Assay type in all cases: cell-based
human TLR8 = biological target: T1, human TLR8 (Homo sapiens, UniProt Q9NR97); test: TLR8 inhibition reporter assay (HEK-Blue SEAP); settings: HEK-Blue cells overexpressing human TLR8, stimulated with R848 15.9 μM, 22 hour incubation
T1 construct: host or cells: HEK-Blue cells
T1 sequence (Q9NR97 27-1041): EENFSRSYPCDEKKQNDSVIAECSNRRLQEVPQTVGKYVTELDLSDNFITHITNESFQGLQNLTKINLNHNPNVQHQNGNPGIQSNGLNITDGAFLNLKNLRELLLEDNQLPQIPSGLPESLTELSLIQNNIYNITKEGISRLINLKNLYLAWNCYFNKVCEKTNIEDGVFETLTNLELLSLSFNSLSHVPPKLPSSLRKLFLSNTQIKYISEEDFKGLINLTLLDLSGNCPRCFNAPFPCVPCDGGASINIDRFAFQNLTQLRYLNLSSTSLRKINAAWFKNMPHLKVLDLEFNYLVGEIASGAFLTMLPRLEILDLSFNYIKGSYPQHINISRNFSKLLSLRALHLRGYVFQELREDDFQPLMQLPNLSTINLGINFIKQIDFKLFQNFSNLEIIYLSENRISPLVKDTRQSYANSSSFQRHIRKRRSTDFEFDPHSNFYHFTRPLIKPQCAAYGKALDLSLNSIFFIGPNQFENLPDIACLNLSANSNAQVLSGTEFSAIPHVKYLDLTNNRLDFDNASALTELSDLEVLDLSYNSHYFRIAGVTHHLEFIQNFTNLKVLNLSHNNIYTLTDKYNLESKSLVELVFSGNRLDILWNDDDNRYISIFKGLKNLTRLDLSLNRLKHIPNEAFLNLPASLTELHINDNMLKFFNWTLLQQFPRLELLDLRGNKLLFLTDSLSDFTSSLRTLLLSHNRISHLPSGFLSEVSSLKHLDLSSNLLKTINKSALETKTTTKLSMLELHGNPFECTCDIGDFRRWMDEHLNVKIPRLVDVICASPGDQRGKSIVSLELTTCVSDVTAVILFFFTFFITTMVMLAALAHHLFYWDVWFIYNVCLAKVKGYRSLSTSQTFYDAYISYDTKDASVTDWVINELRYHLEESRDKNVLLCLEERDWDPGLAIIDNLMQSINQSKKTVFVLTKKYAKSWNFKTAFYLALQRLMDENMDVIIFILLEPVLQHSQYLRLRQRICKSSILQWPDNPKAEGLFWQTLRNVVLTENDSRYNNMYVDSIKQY
Outline: (§1)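 HEK-Blue cells overexpressing human TLR7, TLR8 or TLR9 with an NF-κB/AP-1-driven SEAP reporter were pre-treated 30 min at room temperature with compound (0.05 nM to 50 μM), then stimulated with gardiquimod 7.5 μM (TLR7), R848 15.9 μM (TLR8) or ODN2006 5 nM (TLR9). SEAP measured after 22 h at 37° C; inhibition normalized between agonist-plus-DMSO and reference-inhibitor wells.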

human TLR9 = biological target: T2, human TLR9 (Homo sapiens, UniProt Q9NR96); test: TLR9 inhibition reporter assay (HEK-Blue SEAP); settings: HEK-Blue cells overexpressing human TLR9, stimulated with ODN2006 5 nM, 22 hour incubation
T2 construct: host or cells: HEK-Blue cells
T2 sequence (Q9NR96 26-1032): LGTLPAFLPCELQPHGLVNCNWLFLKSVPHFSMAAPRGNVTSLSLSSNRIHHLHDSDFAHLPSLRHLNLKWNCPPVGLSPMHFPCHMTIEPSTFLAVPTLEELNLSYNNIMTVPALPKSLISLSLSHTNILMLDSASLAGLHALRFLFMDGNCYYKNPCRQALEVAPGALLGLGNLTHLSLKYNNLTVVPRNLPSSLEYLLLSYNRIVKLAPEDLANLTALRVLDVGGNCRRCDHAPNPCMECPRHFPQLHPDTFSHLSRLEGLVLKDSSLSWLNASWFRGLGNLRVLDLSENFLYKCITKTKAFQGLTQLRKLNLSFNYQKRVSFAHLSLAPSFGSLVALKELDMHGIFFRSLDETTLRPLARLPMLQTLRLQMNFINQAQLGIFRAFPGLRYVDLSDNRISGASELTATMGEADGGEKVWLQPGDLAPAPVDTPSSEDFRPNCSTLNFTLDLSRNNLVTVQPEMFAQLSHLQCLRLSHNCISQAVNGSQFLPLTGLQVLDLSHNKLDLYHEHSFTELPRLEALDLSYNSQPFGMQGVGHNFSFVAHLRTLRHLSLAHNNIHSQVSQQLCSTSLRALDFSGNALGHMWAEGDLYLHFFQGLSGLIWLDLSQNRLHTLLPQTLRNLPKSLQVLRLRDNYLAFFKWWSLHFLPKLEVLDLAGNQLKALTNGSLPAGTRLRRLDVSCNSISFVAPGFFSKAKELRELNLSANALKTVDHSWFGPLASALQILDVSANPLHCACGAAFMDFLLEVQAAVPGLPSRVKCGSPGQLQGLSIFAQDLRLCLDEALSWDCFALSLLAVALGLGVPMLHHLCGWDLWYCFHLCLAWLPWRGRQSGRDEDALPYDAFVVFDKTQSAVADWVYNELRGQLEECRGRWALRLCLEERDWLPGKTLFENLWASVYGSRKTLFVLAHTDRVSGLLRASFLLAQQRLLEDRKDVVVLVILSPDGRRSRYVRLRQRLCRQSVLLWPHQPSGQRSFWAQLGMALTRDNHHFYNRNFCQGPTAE
Outline: as §1

human TLR7 = biological target: T3, human TLR7 (Homo sapiens, UniProt Q9NYK1); test: TLR7 inhibition reporter assay (HEK-Blue SEAP); settings: HEK-Blue cells overexpressing human TLR7, stimulated with gardiquimod 7.5 μM, 22 hour incubation
T3 construct: host or cells: HEK-Blue cells
T3 sequence (Q9NYK1 27-1049): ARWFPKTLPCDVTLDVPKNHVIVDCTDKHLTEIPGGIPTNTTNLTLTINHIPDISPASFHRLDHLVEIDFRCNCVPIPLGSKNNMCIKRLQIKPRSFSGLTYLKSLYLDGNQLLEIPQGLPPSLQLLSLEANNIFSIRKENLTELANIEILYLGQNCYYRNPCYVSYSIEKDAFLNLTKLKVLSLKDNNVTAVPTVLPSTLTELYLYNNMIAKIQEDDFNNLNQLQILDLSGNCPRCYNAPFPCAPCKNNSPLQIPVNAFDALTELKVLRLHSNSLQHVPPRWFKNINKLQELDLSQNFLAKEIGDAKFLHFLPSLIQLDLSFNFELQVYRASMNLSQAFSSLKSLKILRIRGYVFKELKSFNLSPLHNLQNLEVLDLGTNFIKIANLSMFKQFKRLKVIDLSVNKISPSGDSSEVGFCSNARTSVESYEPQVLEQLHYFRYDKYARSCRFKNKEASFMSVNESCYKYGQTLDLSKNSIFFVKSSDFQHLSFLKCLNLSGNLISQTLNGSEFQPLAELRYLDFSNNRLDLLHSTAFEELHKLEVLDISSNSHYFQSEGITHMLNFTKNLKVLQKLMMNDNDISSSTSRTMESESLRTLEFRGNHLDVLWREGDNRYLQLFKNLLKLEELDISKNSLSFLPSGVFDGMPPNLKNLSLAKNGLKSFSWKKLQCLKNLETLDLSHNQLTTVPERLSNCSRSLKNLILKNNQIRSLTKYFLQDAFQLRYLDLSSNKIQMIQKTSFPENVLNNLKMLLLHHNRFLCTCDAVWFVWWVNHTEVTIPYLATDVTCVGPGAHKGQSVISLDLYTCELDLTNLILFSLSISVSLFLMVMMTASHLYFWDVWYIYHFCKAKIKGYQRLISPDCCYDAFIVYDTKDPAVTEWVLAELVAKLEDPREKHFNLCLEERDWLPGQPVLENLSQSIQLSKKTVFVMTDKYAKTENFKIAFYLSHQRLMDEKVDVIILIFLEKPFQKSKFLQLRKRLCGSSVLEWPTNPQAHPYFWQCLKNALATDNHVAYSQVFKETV
Outline: as §1

Structure (SMILES) | IC50 (human TLR8) | IC50 (human TLR9) | IC50 (human TLR7)
Cc1cc(-c2cc3[nH]nc(C4CCC(N5CC6(C5)CS(=O)(=O)C6)CC4)c3cc2C(C)C)cn2ncnc12 (single isomer, unassigned) [Example 142, 6-(4-(5-isopropyl-6-(8-methyl-[1,2,4]triazolo[1,5-a]pyridin-6-yl)-1H-indazol-3-yl)cyclohexyl)-2-thia-6-azaspiro[3.3]heptane 2,2-dioxide] | 0.2 nM | 9710 nM | 1.3 nM
Cc1cc2c(C3CCC(N(C)C)CC3)n[nH]c2cc1-c1cc(C)c2ncnn2c1 (single isomer, unassigned) [Example 3, N,N-dimethyl-4-(5-methyl-6-(8-methyl-[1,2,4]triazolo[1,5-a]pyridin-6-yl)-1H-indazol-3-yl)cyclohexan-1-amine] | 0.4 nM | 1120 nM | 10.2 nM
Cc1cc2c(C3CCNCC3)n[nH]c2cc1-c1cc(C#N)c2ncnn2c1 [Example 84, 6-(5-methyl-3-(piperidin-4-yl)-1H-indazol-6-yl)-[1,2,4]triazolo[1,5-a]pyridine-8-carbonitrile] | 15.7 nM | 5610 nM | 33.4 nM
Cc1cc(-c2cc(C)c3ncnn3c2)cc2[nH]nc(C3CCN(CC(C)(C)O)CC3)c12 [Example 77, 2-methyl-1-(4-(4-methyl-6-(8-methyl-[1,2,4]triazolo[1,5-a]pyridin-6-yl)-1H-indazol-3-yl)piperidin-1-yl)propan-2-ol] | 10.9 nM | 2190 nM | 11.1 nM
COC1CN(C2CCC(c3n[nH]c4cc(-c5cc(C)c6ncnn6c5)c(C(C)C)cc34)CC2)C1 (stereo not drawn) [Example 144, 6-(5-isopropyl-3-(4-(3-methoxyazetidin-1-yl)cyclohexyl)-1H-indazol-6-yl)-8-methyl-[1,2,4]triazolo[1,5-a]pyridine] | 0.5 nM | 13100 nM | 0.8 nM
Cc1cc(-c2cc3[nH]nc(C4CCC(N5CCC6(CCOC6)C5)CC4)c3cc2C(C)C)cn2ncnc12 (single isomer, unassigned) [Example 210, 7-(4-(5-isopropyl-6-(8-methyl-[1,2,4]triazolo[1,5-a]pyridin-6-yl)-1H-indazol-3-yl)cyclohexyl)-2-oxa-7-azaspiro[4.4]nonane] | 0.37 nM | 5910 nM | 2.1 nM

Results, then the molecule that gave them:

IC50 (human TLR8) | IC50 (human TLR9) | IC50 (human TLR7) | Structure (SMILES)
0.8 nM | 8690 nM | 1.5 nM | COC1CN(C2CCC(c3n[nH]c4cc(-c5cc(C)c6ncnn6c5)c(C(C)C)cc34)CC2)C1 (stereo not drawn) [Example 145, 6-(5-isopropyl-3-(4-(3-methoxyazetidin-1-yl)cyclohexyl)-1H-indazol-6-yl)-8-methyl-[1,2,4]triazolo[1,5-a]pyridine]
0.2 nM | 3340 nM | 7 nM | Cc1cc2c(C3CCC(NC4CC4)CC3)n[nH]c2cc1-c1cc(C)c2ncnn2c1 (stereo not drawn) [Example 36, N-cyclopropyl-4-(5-methyl-6-(8-methyl-[1,2,4]triazolo[1,5-a]pyridin-6-yl)-1H-indazol-3-yl) cyclohexan-1-amine]
0.4 nM | 14500 nM | 3.7 nM | CCc1cc2c(C3CCN(CC(=O)N(C)C)CC3)n[nH]c2cc1-c1cc(C)c2ncnn2c1 [Example 91, 2-(4-(5-ethyl-6-(8-methyl-[1,2,4]triazolo[1,5-a]pyridin-6-yl)-1H-indazol-3-yl)piperidin-1-yl)-N,N-dimethylacetamide]
0.5 nM | 11200 nM | 3.4 nM | COc1cc(-c2cc3[nH]nc(C4CCN(C(=O)CN(C)C)CC4)c3cc2C(C)C)cn2ncnc12 [Example 117, 2-(dimethylamino)-1-(4-(5-isopropyl-6-(8-methoxy-[1,2,4]triazolo[1,5-a]pyridin-6-yl)-1H-indazol-3-yl)piperidin-1-yl)ethan-1-one]
1.4 nM | 438 nM | 1.8 nM | Cc1cc(-c2cc(C)c3ncnn3c2)cc2[nH]nc(OC3CCNCC3)c12 [Example 174, 8-methyl-6-(4-methyl-3-(piperidin-4-yloxy)-1H-indazol-6-yl)-[1,2,4]triazolo[1,5-a]pyridine]
2.6 nM | ≥ 50000 nM | 4.7 nM | Cc1cc(-c2cc3[nH]nc(C4CCC(N5CC(CO)(CO)C5)CC4)c3cc2C(C)C)cn2ncnc12 (stereo not drawn) [Example 146, (1-(4-(5-isopropyl-6-(8-methyl-[1,2,4]triazolo[1,5-a]pyridin-6-yl)-1H-indazol-3-yl)cyclohexyl)azetidine-3,3-diyl)dimethanol]
0.2 nM | 9190 nM | 1.4 nM | Cc1cc(-c2cc3[nH]nc(C4CCC(N5CCOCC5)CC4)c3cc2C(C)C)cn2ncnc12 (stereo not drawn) [Example 133, 4-(4-(5-isopropyl-6-(8-methyl-[1,2,4]triazolo[1,5-a]pyridin-6-yl)-1H-indazol-3-yl)cyclohexyl)morpholine]
